Assay results reported in ChEMBL document CHEMBL1201862, “PubChem BioAssay data set” (2004).
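Results reflect a 48-hour exposure of cells in 96-well plates to compound at five concentrations. GI50: concentration for 50% inhibition of growth.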 Active and inactive are the calls of the source. No stated cut-off is given here; in the data, active = GI50 up to about 1.1 µM and inactive = higher.

What was measured:
Experiment in all cases: NCI-60 cell line screen, 48 h
HL-60 = tested on: HL-60
SW-620 = tested on: SW-620
OVCAR-4 = tested on: OVCAR-4
OVCAR-5 = tested on: OVCAR-5
OVCAR-8 = tested on: OVCAR-8
CAKI-1 = tested on: CAKI-1
COLO 205 = tested on: COLO 205
UACC-257 = tested on: UACC-257
MDA-MB-231 = tested on: MDA-MB-231
RXF 393 = tested on: RXF 393
SK-OV-3 = tested on: SK-OV-3
LOX IMVI = tested on: LOX IMVI
NCI/ADR-RES = tested on: NCI/ADR-RES
786-0 = tested on: 786-0
NCI-H460 = tested on: NCI-H460
MOLT-4 = tested on: MOLT-4
TK-10 = tested on: TK-10
KM12 = tested on: KM12
MDA-N = tested on: MDA-N
BT-549 = tested on: BT-549
SK-MEL-28 = tested on: SK-MEL-28
UO-31 = tested on: UO-31
MDA-MB-435 = tested on: MDA-MB-435
Hs-578T = tested on: Hs-578T
DU-145 = tested on: DU-145
ACHN = tested on: ACHN
OVCAR-3 = tested on: OVCAR-3
A549 = tested on: A549
SN12C = tested on: SN12C
SF-295 = tested on: SF-295
MCF7 = tested on: MCF7
K562 = tested on: K562
Malme-3M = tested on: Malme-3M
UACC-62 = tested on: UACC-62
U-251 = tested on: U-251
T47D = tested on: T47D
SK-MEL-5 = tested on: SK-MEL-5
SNB-19 = tested on: SNB-19
SF-539 = tested on: SF-539
HT-29 = tested on: HT-29
HOP-92 = tested on: HOP-92
M14 = tested on: M14
HOP-62 = tested on: HOP-62
SF-268 = tested on: SF-268
NCI-H23 = tested on: NCI-H23
CCRF-CEM = tested on: CCRF-CEM
SR = tested on: SR
HCT-116 = tested on: HCT-116
NCI-H226 = tested on: NCI-H226
RPMI-8226 = tested on: RPMI-8226
PC-3 = tested on: PC-3
EKVX = tested on: EKVX
HCT-15 = tested on: HCT-15
HCC 2998 = tested on: HCC 2998
SK-MEL-2 = tested on: SK-MEL-2
A498 = tested on: A498
SNB-75 = tested on: SNB-75
IGROV-1 = tested on: IGROV-1
NCI-H522 = tested on: NCI-H522

COc1ccc(-c2cc(-c3ccc(O)cc3O)c(C#N)c(=O)[nH]2)cc1
GI50 (HL-60): 29.7 µM (inactive)
GI50 (SW-620): 21.3 µM (inactive)
GI50 (OVCAR-4): 20.1 µM (inactive)
GI50 (OVCAR-5): 18.6 µM (inactive)
GI50 (OVCAR-8): 31.9 µM (inactive)
GI50 (CAKI-1): 23.8 µM (inactive)
GI50 (COLO 205): 16.6 µM (inactive)
GI50 (UACC-257): 19.5 µM (inactive)
GI50 (MDA-MB-231): 17.3 µM (inactive)
GI50 (RXF 393): 15.9 µM (inactive)
GI50 (SK-OV-3): 16.1 µM (inactive)
GI50 (LOX IMVI): 16.6 µM (inactive)
GI50 (NCI/ADR-RES): 19.6 µM (inactive)
GI50 (786-0): 18.5 µM (inactive)
GI50 (NCI-H460): 23.1 µM (inactive)
GI50 (MOLT-4): 18.6 µM (inactive)
GI50 (TK-10): 26.5 µM (inactive)
GI50 (KM12): 22.6 µM (inactive)
GI50 (MDA-N): 11.6 µM (inactive)
GI50 (BT-549): 23.6 µM (inactive)
GI50 (SK-MEL-28): 15.1 µM (inactive)
GI50 (UO-31): 34.4 µM (inactive)
GI50 (MDA-MB-435): 13.8 µM (inactive)
GI50 (Hs-578T): 18.5 µM (inactive)
GI50 (DU-145): 40.6 µM (inactive)
GI50 (ACHN): 43.2 µM (inactive)
GI50 (OVCAR-3): 20.5 µM (inactive)
GI50 (A549): 23.4 µM (inactive)
GI50 (SN12C): 18.8 µM (inactive)
GI50 (SF-295): 15.7 µM (inactive)
GI50 (MCF7): 27 µM (inactive)
GI50 (K562): 25.2 µM (inactive)
GI50 (Malme-3M): 23.1 µM (inactive)
GI50 (UACC-62): 15.8 µM (inactive)
GI50 (U-251): 18.7 µM (inactive)
GI50 (T47D): 93.3 µM (inactive)
GI50 (SK-MEL-5): 15.5 µM (inactive)
GI50 (SNB-19): 21.9 µM (inactive)
GI50 (SF-539): 17.6 µM (inactive)
GI50 (HT-29): 18.1 µM (inactive)
GI50 (HOP-92): 12.6 µM (inactive)
GI50 (M14): 16 µM (inactive)
GI50 (HOP-62): 17.9 µM (inactive)
GI50 (SF-268): 24.3 µM (inactive)
GI50 (NCI-H23): 26.2 µM (inactive)
GI50 (CCRF-CEM): 23.9 µM (inactive)
GI50 (SR): 16.7 µM (inactive)
GI50 (HCT-116): 19.1 µM (inactive)
GI50 (NCI-H226): 20.6 µM (inactive)
GI50 (RPMI-8226): 15.7 µM (inactive)
GI50 (PC-3): 14.4 µM (inactive)
GI50 (EKVX): 15.2 µM (inactive)
GI50 (HCT-15): 31.9 µM

Cc1ccc(CC2(OCCN(C)C)CCC(C(C)(C)C)CC2)cc1 (stereo not given)
GI50 (HL-60): 0.767 µM (active)
GI50 (SW-620): 2.25 µM (inactive)
GI50 (OVCAR-4): 4.16 µM (inactive)
GI50 (OVCAR-5): 5.52 µM (inactive)
GI50 (OVCAR-8): 4.62 µM (inactive)
GI50 (CAKI-1): 4.99 µM (inactive)
GI50 (COLO 205): 2.05 µM (inactive)
GI50 (HCC 2998): 1.98 µM (inactive)
GI50 (UACC-257): 2.65 µM (inactive)
GI50 (MDA-MB-231): 6.01 µM (inactive)
GI50 (SK-OV-3): 8.17 µM (inactive)
GI50 (LOX IMVI): 1.57 µM (inactive)
GI50 (NCI/ADR-RES): 6.73 µM (inactive)
GI50 (SK-MEL-2): 1.97 µM (inactive)
GI50 (A498): 13 µM (inactive)
GI50 (786-0): 1.99 µM (inactive)
GI50 (NCI-H460): 1.99 µM (inactive)
GI50 (MOLT-4): 1.71 µM (inactive)
GI50 (TK-10): 4.47 µM (inactive)
GI50 (KM12): 3.62 µM (inactive)
GI50 (MDA-N): 2.53 µM (inactive)
GI50 (BT-549): 4.61 µM (inactive)
GI50 (SK-MEL-28): 1.88 µM (inactive)
GI50 (UO-31): 3.49 µM (inactive)
GI50 (MDA-MB-435): 2.37 µM (inactive)
GI50 (Hs-578T): 12.1 µM (inactive)
GI50 (DU-145): 3.78 µM (inactive)
GI50 (ACHN): 6.87 µM (inactive)
GI50 (SNB-75): 6.81 µM (inactive)
GI50 (OVCAR-3): 9.68 µM (inactive)
GI50 (A549): 3.6 µM (inactive)
GI50 (SN12C): 4.8 µM (inactive)
GI50 (SF-295): 5.22 µM (inactive)
GI50 (MCF7): 2.43 µM (inactive)
GI50 (K562): 1.71 µM (inactive)
GI50 (Malme-3M): 1.63 µM (inactive)
GI50 (UACC-62): 2.15 µM (inactive)
GI50 (U-251): 2.34 µM (inactive)
GI50 (T47D): 2.87 µM (inactive)
GI50 (SK-MEL-5): 1.58 µM (inactive)
GI50 (SNB-19): 4.39 µM (inactive)
GI50 (SF-539): 1.81 µM (inactive)
GI50 (HT-29): 2.13 µM (inactive)
GI50 (M14): 1.79 µM (inactive)
GI50 (HOP-62): 3.01 µM (inactive)
GI50 (IGROV-1): 6.5 µM (inactive)
GI50 (NCI-H522): 3.53 µM (inactive)
GI50 (SF-268): 11.5 µM (inactive)
GI50 (NCI-H23): 10.7 µM (inactive)
GI50 (CCRF-CEM): 2.41 µM (inactive)
GI50 (SR): 2.04 µM (inactive)
GI50 (HCT-116): 2.38 µM (inactive)
GI50 (NCI-H226): 5.78 µM (inactive)
GI50 (RPMI-8226): 1.84 µM (inactive)
GI50 (PC-3): 3.04 µM (inactive)
GI50 (EKVX): 6.14 µM (inactive)
GI50 (HCT-15): 3.86 µM

CCCCCC/C=C\CCCCCCCCCc1c(O)c(OC)cc(O)c1CN(C)C
GI50 (HL-60): 1.6 µM (inactive)
GI50 (SW-620): 2.93 µM (inactive)
GI50 (OVCAR-4): 1.47 µM (inactive)
GI50 (OVCAR-5): 14.5 µM (inactive)
GI50 (OVCAR-8): 4.06 µM (inactive)
GI50 (CAKI-1): 13.8 µM (inactive)
GI50 (COLO 205): 1.92 µM (inactive)
GI50 (UACC-257): 11.4 µM (inactive)
GI50 (MDA-MB-231): 14.5 µM (inactive)
GI50 (SK-OV-3): 14.9 µM (inactive)
GI50 (LOX IMVI): 3.2 µM (inactive)
GI50 (NCI/ADR-RES): 5.89 µM (inactive)
GI50 (SK-MEL-2): 20.7 µM (inactive)
GI50 (A498): 17 µM (inactive)
GI50 (786-0): 1.7 µM (inactive)
GI50 (NCI-H460): 3.67 µM (inactive)
GI50 (MOLT-4): 1.69 µM (inactive)
GI50 (TK-10): 14.6 µM (inactive)
GI50 (KM12): 3.34 µM (inactive)
GI50 (MDA-N): 13 µM (inactive)
GI50 (BT-549): 9.2 µM (inactive)
GI50 (SK-MEL-28): 13.2 µM (inactive)
GI50 (UO-31): 4.21 µM (inactive)
GI50 (MDA-MB-435): 6.64 µM (inactive)
GI50 (Hs-578T): 2.7 µM (inactive)
GI50 (DU-145): 17.9 µM (inactive)
GI50 (ACHN): 10.7 µM (inactive)
GI50 (SNB-75): 2.79 µM (inactive)
GI50 (OVCAR-3): 6.35 µM (inactive)
GI50 (A549): 4.04 µM (inactive)
GI50 (SN12C): 4.83 µM (inactive)
GI50 (SF-295): 5.38 µM (inactive)
GI50 (MCF7): 2.55 µM (inactive)
GI50 (K562): 1.73 µM (inactive)
GI50 (UACC-62): 10.6 µM (inactive)
GI50 (U-251): 3.73 µM (inactive)
GI50 (T47D): 1.76 µM (inactive)
GI50 (SK-MEL-5): 5.41 µM (inactive)
GI50 (SNB-19): 12.9 µM (inactive)
GI50 (SF-539): 5.3 µM (inactive)
GI50 (HT-29): 4.44 µM (inactive)
GI50 (M14): 11.4 µM (inactive)
GI50 (HOP-62): 12.8 µM (inactive)
GI50 (IGROV-1): 3.18 µM (inactive)
GI50 (NCI-H522): 1.64 µM (inactive)
GI50 (SF-268): > 10 µM (inactive)
GI50 (NCI-H23): 8.61 µM (inactive)
GI50 (CCRF-CEM): 0.887 µM (active)
GI50 (SR): 0.692 µM (active)
GI50 (HCT-116): 3.85 µM (inactive)
GI50 (NCI-H226): 17 µM (inactive)
GI50 (RPMI-8226): 2.44 µM (inactive)
GI50 (PC-3): 2.96 µM (inactive)
GI50 (EKVX): 10.7 µM (inactive)
GI50 (HCT-15): 3.01 µM
